Measurements reported in patent EP1763300B1 (priority 2004, dated 2006).
Values after ≈ are worked out from the molar mass of the structure shown.

How the values were obtained:
Type in all cases: physicochemical
[1] = Solubility in distilled water; settings: no polymer, read-out: Löslichkeit in destilliertem Wasser
Excerpt: Verschiedene schlecht wasserlösliche Substanzen wurden eingesetzt, um die Eignung der erfindungsgemäßen Polymere als Lösungsvermittler zu testen. Tabelle 1

[2] = Solubilisation with polymer of Herstellungsbeispiel 2 by Verfahren 1 (solid solution), HPLC-UV; settings: buffer with polymer, pH 6, 1440 min
Method: 0,5 g eines Polymers und 0,1 g einer ausgewählten Substanz wurden in DMF (ca. 20 ml) gelöst. Das Gemisch wurde gerührt und DMF wurde vollständig evaporiert, so daß eine […] der organischen Moleküle in dem Polymer erhalten wurde. […] […] Nach der Filtration wurde die Lösung mittels HPLC analysiert (Detektor UV) und die Konzentration der Substanzen bestimmt.

[3] = Solubilisation with polymer of Herstellungsbeispiel 1 by Verfahren 1 (solid solution), HPLC-UV; settings: buffer with polymer, pH 6, 1440 min

Compound | solubility [1] | in Gegenwart von Polymer [2] | Löslichkeit in Gegenwart von Polymer [3]
CCOC(=O)/C(Cl)=C/c1cc(N2C(=O)C3=C(CCCC3)C2=O)ccc1Cl [Cinidon-Ethyl] | 0.057 µg/mL (≈ 0.145 µM) | 57 mg/L | 0,5 mg/l
CC1(C)CCC(Cc2ccc(Cl)cc2)C1(O)Cn1cncn1 (centres unmarked) [Metconazol] | 15 µg/mL (≈ 46.9 µM) |  | 
CN1C(C(=O)Nc2ccccn2)=C(O)c2ccccc2S1(=O)=O [Piroxicam] | 23 µg/mL (≈ 69.4 µM) | 167 mg/L | 92 mg/L
COC(=O)N(OC)c1ccccc1COc1ccn(-c2ccc(Cl)cc2)n1 [Pyraclostrobin] | 2.4 µg/mL (≈ 6.19 µM) |  | 
CCCCC(CC)COC(=O)c1ccc(Nc2nc(Nc3ccc(C(=O)OCC(CC)CCCC)cc3)nc(Nc3ccc(C(=O)OCC(CC)CCCC)cc3)n2)cc1 (centres unmarked) [Uvinul T150®, Octyltriazon] | 0.007 µg/mL (≈ 0.0085 µM) | 79 mg/L | 2,3 mg/l
